Assay results reported in US20180078615A1, “USE OF CCL2 TO INHIBIT ABNORMAL UTERINE BLEEDING” (UNIVERSITY OF SOUTH FLORIDA, priority 2015, published 2018).

What was measured:
Assay type in all cases: cell-based, human
[1] = test system: VSMCs; assay: Transwell insert migration assay; settings: 12-h incubation, 10^−7 M; control 48.4%
Description: VSMCs (75,000 cells/200 μL) were suspended in M231 containing 1% charcoal striped FBS and either 0.1% ethanol (vehicle control) or the corresponding steroids and seeded onto insert wells (transwell filter with 12-μm pores; EMD Millipore). The inserts were then placed in 24-well plates containing 500 μL M231 with 1% charcoal striped FBS. After 12 h, cells remaining on the upper surface of the filter were removed with a cotton swab. Migrated cells were trypsinized, centrifuged, and resuspended in 200 μL of M231 medium. The cell suspensions were mixed with 200 μL 10% ethanol containing 0.4% Trypan blue dye and the live cell number was counted by Countess Automated Cell Counter (Invitrogen). See further details in SI Materials and Methods.
Cultured VSMCs were grown in T-75 cell culture flasks in M231 (Life Technologies) with smooth muscle growth supplement (Life Technologies) with 100 U/mL penicillin, 100 μg/mL streptomycin, 0.25 μg/mL fungizone. Confluent VSMCs were washed twice with 1×PBS to remove residual serum, and then trypsinized, resuspended (75,000 cells per 200 μL per well) in M231 with 1% charcoal striped FBS with 0.1% ethanol (vehicle, control), 10^−7 M MPA (Sigma-Aldrich), 10^−7 M ETO (Organon), or 10^−7 M P4 (Sigma-Aldrich)±rCCL2 (R&D Systems) and seeded on insert wells (transwell filter with 12-μm pores; EMD Millipore), which were then placed in 24-well plates containing 500 μL M231 with 1% charcoal striped FBS. After 12 h, cells remaining on the upper surface of the filter were removed with a cotton swab. Migrated cells attached to the lower surface of each insert or to the surface of lower wells were collected by trypsinization, followed by centrifugation and resuspension in 200 μL of M231 medium. The cell suspensions were mixed with 200 μL 10% ethanol containing 0.4% Trypan blue dye (selectively stains only dead cells blue, whereas live cells with intact cell membranes remain unstained) for 5 min. A mixture of 100 μL M231 and 100 μL 10% ethanol containing 0.4% Trypan blue dye was used as a negative control. To detect live cell numbers, 10 μL of final cell/Trypan blue dye suspension from each treatment condition was pipetted into Countess Cell Counting Chamber Slide and counted by using Countess Automated Cell Counter (Invitrogen). The counting procedure was performed in duplicate.

[2] = test system: VSMCs; assay: Whole genome microarray analysis (Illumina HumanHT-12 v4) of cultured VSMCs treated with progestins; settings: VSMCs treated by MPA
Source text: Cultured VSMCs (n=3) treated with control medium or medium containing medroxyprogesterone acetate (MPA, 10^−7 M), or etonogestrel (ETO, 10^−7 M) were processed for whole genome analyses using Illumina Human microarray kit. After qRT-PCR confirmation of several up and down regulated genes from microarray data, Ingenuity Pathway Analysis (IPA) determined relevant upstream signaling of LAPC altered gene expression. To investigate the role of genes and relevant signaling molecules identified by IPA, VSMCs (n=3) treated with MPA or ETO±1 or 10 ng/ml recombinant CCL2 (rCCL2)±STAT1 inhibitor, 5′-methyl-thioadenosine (MTA, 100 μM) were analyzed by BrdU incorporation proliferation, TUNEL based ELISA apoptosis and Transwell insert migration assays.
(§1) VSMCs were thawed and cultured in medium 231 (M231; Life Technologies) with smooth muscle growth supplement (5% FBS; 2 ng/mL human basic fibroblast growth factor, 0.5 ng/mL human epidermal growth factor, 5 ng/mL heparin, 0.2 μg/mL insulin and 5 μg/mL BSA; Life Technologies) with 100 U/mL penicillin, 100 μg/mL streptomycin, 0.25 μg/mL fungizone. Confluent VSMCs were washed twice with 1×PBS to remove residual serum, passaged in 96-well or 6-well plates and incubated in parallel in M231 with 1% charcoal striped FBS with 0.1% ethanol (vehicle, control) or 10^−7 M MPA (Sigma-Aldrich) or 10^−7 M ETO (Organon) or 10^−7 M P4 (Sigma-Aldrich) for 15 min, 6, 48, and 72 h. VSMCs were then washed with ice-cold PBS and stored at −80° C. for further RNA and protein analyses.
Total RNA was isolated using Qiagen miRNeasy Mini Kit (Qiagen) and RNeasy MinElute Cleanup Kit (Qiagen). The quality of isolated RNAs was confirmed using an Agilent 2100 Bioanalyzer. Microarray analysis was limited to those specimens in which RNA Integrity Number exceeded 8. Microarray processes were performed in the Keck Biotechnology Resource Laboratory at Yale University (New Haven, Conn.) using Illumina Human HT-12 v4 BeadChip (Illumina). Raw data without normalization were analyzed by GeneSpring GX12.5 software (Agilent Technologies-Silicon Genetics). Normalization was performed as described (35). Genes with a fold-change >1.25 and a P value<0.05 were considered differentially expressed. Ingenuity Pathway Analysis (IPA) software (Qiagen) explored molecular and biological networks related to differentially expressed genes.

[3] = test system: VSMCs; assay: qRT-PCR of H19, TMEM119, RARRES1 and CCL2 mRNA in cultured VSMCs; settings: vs control
Description: as §1
For qRT-PCR, 500 ng total RNA from each treatment was reverse transcribed by using RETROscript kit (Ambion). qRT-PCR was performed using the TaqMan Gene Expression Assay Kits for H19, TMEM119, RARRES1, and CCL2 (TaqMan ID # Hs00262142_g1, Hs01938722_m1, Hs00161204_m1 and Hs00234140_m1, respectively; Life Technologies) as described previously (36). Expression of the target mRNAs was normalized to β-actin levels, and the 2^−ΔΔCT was used to calculate relative expression levels.

CC(=O)O[C@]1(C(C)=O)CC[C@H]2[C@@H]3C[C@H](C)C4=CC(=O)CC[C@]4(C)[C@H]3CC[C@@]21C [MPA, medroxyprogesterone acetate]
migration rate [1]: 18.7%
Fold-change, ABI gene family, member 3 (NESH) binding protein (ABI3BP) [2]: −2.045
Fold-change, Actin, γ 2, smooth muscle, enteric (ACTG2) [2]: 2.761
Fold-change, Alcohol dehydrogenase 1A (class I), α polypeptide (ADH1A) [2]: 2.49
Fold-change, Bradykinin receptor B1 (BDKRB1) [2]: −2.041
Fold-change, Chemokine (C-C motif) ligand 2 (CCL2) [2]: −4.123
Fold-change, Collectin subfamily member 12 (COLEC12) [2]: −2.177
Fold-change, Complement factor B (CFB) [2]: −3.17
Fold-change, Complement factor D (adipsin) (CFD) [2]: 2.794
Fold-change, Cysteine-rich secretory protein LCCL domain containing 2, (CRISPLD2) [2]: 3.721
Fold-change, DNA-damage regulated autophagy modulator 1 (DRAM1) [2]: −2.149
Fold-change, Decorin, transcript variant A2 (DiCN) [2]: 2.515
Fold-change, EF-hand domain family, member D1 (EFHD1) [2]: 2.294
Fold-change, Fibrillin 2 (FBN2) [2]: 2.642
Fold-change, Filaggrin (FLG) [2]: −2.306
Fold-change, Glutathione peroxidase 3 (plasma) (GPX3) [2]: 2.827
Fold-change, H19, imprinted maternally expressed transcript noncoding RNA (H19) [2]: 5.441
Fold-change, Hypothetical protein FLJ40504 (FLJ40504) [2]: −2.331
Fold-change, Indolethylamine N-methyltransferase (INMT) [2]: 2.187
Fold-change, Insulin-like growth factor binding protein 2, 36 kDa (IGFBP2) [2]: 2.367
Fold-change, Interleukin 1, β (IL1B) [2]: −2.325
Fold-change, LY6/PLAUR domain containing 1, transcript variant 1 (LYPD1) [2]: −2.21
Fold-change, Latexin (LXN) [2]: −2.939
Fold-change, Leptin (obesity homolog, mouse) (LEP) [2]: 4.042
Fold-change, Matrix Gla protein, transcript variant 1 (MGP) [2]: 3.615
Fold-change, Matrix Gla protein, transcript variant 2 (MGP) [2]: 3.221
Fold-change, Natriuretic peptide precursor B (NPPB) [2]: −2.371
Fold-change, PREDICTED: keratin 18 pseudogene 13 (KRT18P13) [2]: −2.209
Fold-change, PREDICTED: similar to LYPDC1 protein (LOC100134073) [2]: −2.401
Fold-change, Pleckstrin homology-like domain, family A, member 1 (PHLDA1) [2]: −2.17
Fold-change, Potassium voltage-gated channel, shaker-related subfamily, 0 member 1, transcript variant2 (KCNAB1) [2]: −2.055
Fold-change, Prostaglandin-endoperoxide synthase 1, transcript variant 2 (PTGS1) [2]: 2.437
Fold-change, Retinoic acid receptor responder (tazarotene induced) 1, transcript variant 1, (RARRES1) [2]: −4.061
Fold-change, Retinoic acid receptor responder (tazarotene induced) 1, transcript variant 2, (RARRES1) [2]: −2.994
Fold-change, Superoxide dismutase 2, mitochondrial, transcript variant 2, (SOD2) [2]: −2.208
Fold-change, Sushi domain containing 2 (SUSD2) [2]: 2.901
Fold-change, Transmembrane protein 119 (TMEM119) [2]: 2.258
Fold-change, UDP-N-acetyl-alpha-D-galactosamine:polypeptide N-acetylgalactosaminyltransferase 12 (GALNT12) [2]: −2
Fold-change, Wingless-type MMTV integration site family, member 5A (WNT5A) [2]: 2.218
Fold-change, Collagen, type VIII, α 1, transcript variant 2 (COL8A1) ([2]; table entry 11): 2.628
Fold-change, Collagen, type VIII, alpha 1, transcript variant 2 (COL8A1) ([2]; table entry 14): 2.439
CCL2 mRNA levels [3]: significant inhibition
H19 mRNA [3]: up-regulated
RARRES1 mRNA [3]: down-regulated
TMEM119 mRNA [3]: up-regulated
CCL2 mRNA levels ([3]; listed as WA): down-regulated
